pEC50, pIC50: −log10 of the molar value.
Tests used:
[1] = system: ABCA1 gene; assay: Quantitative analysis of ABCA1 gene regulation in THP-1 cells (real-time PCR); format: cell-based, human; conditions: Gene regulation by LXR (Human); differentiated THP-1 cells, 18 hrs, ABCA1 mRNA; read-out: EC50 ABCA1
Procedure: The compounds of formula (I) effect on the regulation of the ABCA1 gene was evaluated using the following procedure.
The THP-1 monocytic cell line (ATCC # TIB-202) was obtained from American Type Culture Collection (Manassas, Va.) and cultured in RPMI 1640 medium (Gibco, Carlsbad, Calif.) containing 10% FBS, 2 mM L-glutamine, and 55 uM beta-Mercaptoethanol (BME). […] Differentiated THP-1 cells were treated with test compounds or ligands dissolved in DMSO (Sigma, D-8779) in culture medium lacking phorbal ester. […] Unstimulated cells treated with vehicle were included as negative controls on each plate. An LXR agonist reference, N-(2,2,2-trifluoro-ethyl)-N-[4-(2,2,2-trifluoro-1-hydroxy-1-trifluoromethyl-ethyl)-phenyl]-benzenesulfonamide (Schultz, Joshua R., Genes & Development (2000), 14(22), 2831-2838), was dosed at 1.0 uM and served as a positive control. […] Results of antagonist analysis are expressed as % antagonism and IC50 (in μM).
Total cellular RNA was isolated from treated cells cultured in 96-well plates using PrepStation 6100 (Applied Biosystems, Foster City, Calif.), according to the manufacturer's recommendations. RNA was resuspended in ribonuclease-free water and stored at −70° C. prior to analysis. RNA concentrations were quantitated with RiboGreen test procedure, #R-11490 (Molecular Probes, Eugene, Oreg.).
Gene-specific mRNA quantitation was performed by real-time PCR with the Perkin Elmer Corp. chemistry on an ABI Prism 7700 Sequence detection system (Applied Biosystems, Foster City, Calif.) according to the manufacturer's instructions. Samples (50-100 ng) of total RNA were assayed in duplicate or triplicate in 50 μl reactions using one-step RT-PCR and the standard curve method to estimate specific mRNA concentrations. Sequences of gene-specific primer and probe sets were designed with Primer Express Software (Applied Biosystems, Foster City, Calif.). […] RT and PCR reactions were performed according to PE Applied Biosystem's protocol for Taqman Gold RT-PCR or Qiagen's protocol for Quantitect probe RT-PCR. Relative levels of ABCA1 mRNA are normalized using GAPDH mRNA or 18S rRNA probe/primer sets purchased commercially (Applied Biosystems, Foster City, Calif.).
Mean, standard deviation and statistical significance of duplicate evaluations of RNA samples were assessed using ANOVA, one-way analysis of variance using SAS analysis.

[2] = target: T1, human LXRβ (Homo sapiens, UniProt P55055); assay: Ligand-binding test procedure for human LXRβ (3H T0901317 tracer, flash plates)
T1 construct: biotin (biotinylated); made in house; host or cells: E. coli (crude extract)
T1 sequence (P55055 1-460): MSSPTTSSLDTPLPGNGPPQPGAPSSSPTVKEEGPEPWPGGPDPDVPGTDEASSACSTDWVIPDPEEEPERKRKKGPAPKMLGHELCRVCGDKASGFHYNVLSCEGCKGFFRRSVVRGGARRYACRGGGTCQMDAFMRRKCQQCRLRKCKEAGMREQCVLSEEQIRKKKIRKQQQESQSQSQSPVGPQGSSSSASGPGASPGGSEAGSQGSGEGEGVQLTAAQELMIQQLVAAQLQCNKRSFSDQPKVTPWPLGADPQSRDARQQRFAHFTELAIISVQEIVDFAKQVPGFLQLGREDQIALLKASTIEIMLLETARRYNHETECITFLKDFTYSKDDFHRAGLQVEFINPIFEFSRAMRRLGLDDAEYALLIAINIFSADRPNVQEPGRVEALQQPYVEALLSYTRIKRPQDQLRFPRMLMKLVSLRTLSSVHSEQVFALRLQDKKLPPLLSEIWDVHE
Procedure: Receptor source: E. coli extracted from cells expressing biotinylated hLXRβ. Extract was made in a similar buffer as above, but with 50 mM TRIS.
Washed streptavidin and coated flash plates with wash buffer. Diluted receptor extract to give Bmax ˜4000 cpm and add to the wells. Wrapped the plates in aluminum foil and stored them at +4° C. overnight.
(§1) Made a dilution series in DMSO of the test ligands. Made a 5 nM solution of the radioactive tracer in buffer. Mixed 250 μl diluted tracer with 5 μl of the test ligand from each concentration of the dilution series. Washed the receptor-coated flash plates. Added 200 μl per well of the ligand/radiolabel mixture to the receptor-coated flash plates. Wrapped the plates in aluminum foil and incubate at +4° C. over night.
Aspirated wells, and washed the flashed plates. Sealed the plate. Measured the remaining radioactivity in the plate.

[3] = target: T2, human LXRα (Homo sapiens, UniProt Q13133); assay: Ligand-binding test procedure for human LXRα (3H T0901317 tracer, flash plates); conditions: biotinylated hLXRα, tracer 3H T0901317
T2 construct: biotin (biotinylated); made in house; host or cells: E. coli (crude extract)
T2 sequence (Q13133 1-447): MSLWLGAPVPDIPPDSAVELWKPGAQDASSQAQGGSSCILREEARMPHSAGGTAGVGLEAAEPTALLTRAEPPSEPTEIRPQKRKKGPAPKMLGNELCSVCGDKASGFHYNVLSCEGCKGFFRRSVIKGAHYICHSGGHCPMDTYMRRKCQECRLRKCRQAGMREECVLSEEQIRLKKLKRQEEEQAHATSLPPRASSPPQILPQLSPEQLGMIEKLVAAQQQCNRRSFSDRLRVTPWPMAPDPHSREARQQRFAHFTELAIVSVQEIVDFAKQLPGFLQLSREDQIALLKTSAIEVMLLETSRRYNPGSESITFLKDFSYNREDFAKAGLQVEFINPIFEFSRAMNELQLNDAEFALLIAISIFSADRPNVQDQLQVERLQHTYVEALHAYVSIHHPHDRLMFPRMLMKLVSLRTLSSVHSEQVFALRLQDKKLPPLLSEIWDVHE
Procedure: Receptor source: E. coli extract from cells expressing biotinylated hLXRcc. Extract was made in a similar buffer as above, but with 50 mM TRIS.
Washed streptavidin and coated flash plates with wash buffer. Diluted receptor extract to give Bmax ˜4000 cpm and add to the wells. Wrapped the plates in aluminum foil and stored them at +4° C. over night.
as §1
Aspirated wells, and wash the flashed plates. Sealed the plate. Measured the remaining radioactivity in the plate.

## CCc1nc2c(C(F)(F)F)cccc2n1-c1cccc(Oc2cccc(S(C)(=O)=O)c2)c1 [Example 26, 2-ethyl-1-{3-[3-(methylsulfonyl)phenoxy]phenyl}-4-(trifluoromethyl)-1H-benzimidazole]
[1]
  pEC50: 6.85

## Cc1nc2c(Cl)cccc2n1-c1cccc(Oc2cccc(S(=O)(=O)C(F)(F)F)c2)c1 [Example 47, 4-chloro-2-methyl-1-(3-{3-[(trifluoromethyl)sulfonyl]phenoxy}phenyl)-1H-benzimidazole]
[1]
  pEC50: 6.67

## CCS(=O)(=O)c1cccc(Oc2cccc(-n3c(C)nc4c(Cl)cccc43)c2)c1 [Example 41, 4-chloro-1-{3-[3-(ethylsulfonyl)phenoxy]phenyl}-2-methyl-1H-benzimidazole]
[1]
  pEC50: 6.13

## CCS(=O)(=O)c1cc(F)cc(Oc2cccc(-n3c(C)nc4c(C(F)(F)F)cccc43)c2)c1 [Example 7, 1-{3-[3-(ethylsulfonyl)-5-fluorophenoxy]phenyl}-2-methyl-4-(trifluoromethyl)-1H-benzimidazole]
[1]
  pEC50: 5.91

## CCCS(=O)(=O)c1cccc(Oc2ccc(Cl)c(-n3c(C)nc4c(Cl)cccc43)c2)c1 [Example 56, 4-chloro-1-{2-chloro-5-[3-(propylsulfonyl)phenoxy]phenyl}-2-methyl-1H-benzimidazole]
[2]
  pIC50: 6.79
[3]
  pIC50: 5.60

## CS(=O)(=O)c1cccc(Oc2ccc(-n3cnc4c(C(F)(F)F)cccc43)c(Cl)c2)c1 [Example 104, 1-{2-chloro-4-[3-(methylsulfonyl)phenoxy]phenyl}-4-(trifluoromethyl)-1H-benzimidazole]
[2]
  pIC50: 6.32
[3]
  pIC50: 5.59

## Cc1nc2c(Cl)cccc2n1-c1cccc(Oc2ccccc2S(C)(=O)=O)c1 [Example 50, 4-chloro-2-methyl-1-{3-[2-(methylsulfonyl)phenoxy]phenyl}-1H-benzimidazole]
[2]
  pIC50: 6.77
[3]
  pIC50: 6.13

## CCS(=O)(=O)c1cccc(Oc2cccc(-n3c(C(F)(F)F)nc4c(C(F)(F)F)cccc43)c2)c1 [Example 77, 1-{3-[3-(ethylsulfonyl)phenoxy]phenyl}-2,4-bis(trifluoromethyl)-1H-benzimidazole]
[2]
  pIC50: 6.70
[3]
  pIC50: 5.60

## Cc1cc(Oc2cccc(S(C)(=O)=O)c2)ccc1-n1c(C)nc2c(C(F)(F)F)cccc21 [Example 93, 2-methyl-1-{2-methyl-4-[3-(methylsulfonyl)phenoxy]phenyl}-4-(trifluoromethyl)-1H-benzimidazole]
[2]
  pIC50: 6.72
[3]
  pIC50: 5.56

## Cc1nc2c(Cl)cccc2n1-c1cc(Oc2ccccc2S(C)(=O)=O)ccc1Cl [Example 63, 4-chloro-1-{2-chloro-5-[2-(methylsulfonyl)phenoxy]phenyl}-2-methyl-1H-benzimidazole]
[2]
  pIC50: 6.51
[3]
  pIC50: 5.60

## Cc1nc2c(Cl)cccc2n1-c1cc(Oc2ccc(S(C)(=O)=O)cc2)ccc1Cl [Example 61, 4-chloro-1-{2-chloro-5-[4-(methylsulfonyl)phenoxy]phenyl}-2-methyl-1H-benzimidazole]
[2]
  pIC50: 6.45
[3]
  pIC50: 5.52

## Cc1nc2c(Cl)cccc2n1-c1cccc(Oc2cc(F)cc(S(C)(=O)=O)c2)c1 [Example 44, 4-chloro-1-{3-[3-fluoro-5-(methylsulfonyl)phenoxy]phenyl}-2-methyl-1H-benzimidazole]
[2]
  pIC50: 8.46
[3]
  pIC50: 7.92

## Cc1nc2c(C(F)(F)F)cccc2n1-c1cccc(Oc2ccc(S(C)(=O)=O)cc2)c1 [Example 14, 2-methyl-1-{3-[4-(methylsulfonyl)phenoxy]phenyl}-4-(trifluoromethyl)-1H-benzimidazole]
[2]
  pIC50: 6.36
[3]
  pIC50: 5.53

## Cc1nc2c(C(F)(F)F)cccc2n1-c1cccc(Oc2cccc(S(=O)(=O)CCC(C)(C)O)c2)c1 [Example 11, 2-methyl-4-[(3-{3-[2-methyl-4-(trifluoromethyl)-1H-benzimidazol-1-yl]phenoxy}-phenyl)sulfonyl]butan-2-ol]
[2]
  pIC50: 6.54
[3]
  pIC50: 5.15

## Cc1cc(Oc2cccc(S(C)(=O)=O)c2)ccc1-n1cnc2c(C(F)(F)F)cccc21 [Example 90, 1-{2-methyl-4-[3-(methylsulfonyl)phenoxy]phenyl}-4-(trifluoromethyl)-1H-benzimidazole]
[2]
  pIC50: 6.10
[3]
  pIC50: 5.19

## CCS(=O)(=O)c1cc(F)cc(Oc2ccc(-n3c(C)nc4c(C(F)(F)F)cccc43)c(C)c2)c1 [Example 99]
[2]
  pIC50: 6.52
[3]
  pIC50: 5.43

## CCS(=O)(=O)c1cc(F)cc(Oc2ccc(-n3cnc4c(C(F)(F)F)cccc43)c(C)c2)c1 [Example 97, 1-{4-[3-(ethylsulfonyl)-5-fluorophenoxy]-2-methylphenyl}-4-(trifluoromethyl)-1H-benzimidazole]
[2]
  pIC50: 5.95
[3]
  pIC50: 5.10

## CCS(=O)(=O)c1ccc(Oc2cccc(-n3c(C)nc4c(Cl)cccc43)c2)cc1 [Example 49, 4-chloro-1-{3-[4-(ethylsulfonyl)phenoxy]phenyl}-2-methyl-1H-benzimidazole]
[2]
  pIC50: 7.77
[3]
  pIC50: 7.07

## Cc1cc(Oc2cccc(S(=O)(=O)C(C)C)c2)ccc1-n1cnc2c(C(F)(F)F)cccc21 [Example 92, 1-(2-methyl-4-{3-[(1-methylethyl)sulfonyl]phenoxy}phenyl)-4-(trifluoromethyl)-1H-benzimidazole]
[2]
  pIC50: 6.46
[3]
  pIC50: 5.49

## Cc1nc2c(C(F)(F)F)cccc2n1-c1cccc(Oc2ccc(S(=O)(=O)CCCO)cc2)c1 [Example 15, 3-[(4-{3-[2-methyl-4-(trifluoromethyl)-1H-benzimidazol-1-yl]phenoxy}phenyl)sulfonyl]propan-1-ol]
[2]
  pIC50: 6.02
[3]
  pIC50: 5.32

## Cc1nc2c(C(F)(F)F)cccc2n1-c1cccc(Oc2ccccc2S(=O)(=O)CCCO)c1 [Example 13, 3-[(2-{3-[2-methyl-4-(trifluoromethyl)-1H-benzimidazol-1-yl]phenoxy}phenyl)sulfonyl]propan-1-ol]
[2]
  pIC50: 5.72
[3]
  pIC50: < 6.00

## CCS(=O)(=O)c1cccc(Oc2ccc(-n3cnc4c(C(F)(F)F)cccc43)c(Cl)c2)c1 [Example 105, 1-{2-chloro-4-[3-(ethylsulfonyl)phenoxy]phenyl}-4-(trifluoromethyl)-1H-benzimidazole]
[2]
  pIC50: 6.45
[3]
  pIC50: 5.57

— US20110034526A1, “Benzimidazole Compounds” (Wyeth LLC, priority 2007, published 2011)
